# In ChEMBL document CHEMBL1123299, “New antiarrhythmic agents. 2,2,5,5-Tetramethyl-3-pyrroline-3-carboxamides and 2,2,5,5-tetramethylpyrrolidine-3-carboxamindes” (J Med Chem, 1986):
# How the values were obtained:
# [1] = test system: Rattus norvegicus; assay: Incidence of arrhythmias in rats after a intravenal administration at 4 mg/kg, expressed as no. of positive cases out of no. of tested cases (10); format: functional
# [2] = species on record: Rattus norvegicus; assay: Relative potency with reference to quinidine; format: functional
# [3] = Acute toxicity determined after intravenal administration in mice; format: organism-based; conditions: mouse, in vivo, iv
Compound,No. of positive cases [1],Relative potency [2],LD50 [3]
CC1(C)C=C(C(=O)NCCN2C(=O)c3ccccc3C2=O)C(C)(C)N1,7,1.5,–
CC1(C)C=C(C(=O)NCC(C)(C)NCc2cccs2)C(C)(C)N1,1,–,49 mg/kg
Cc1cc(Cl)ccc1OCC(=O)NCCCNC(=O)C1=CC(C)(C)NC1(C)C,3,–,30 mg/kg
CC1(C)C=C(C(=O)NCCNC(=O)Cc2cccs2)C(C)(C)N1,2,–,86 mg/kg
CC1(C)C=C(C(=O)NCCCNC(=O)C2CC=CCC2C(=O)O)C(C)(C)N1 (stereo unspecified),0,–,344 mg/kg
CC1(C)C=C(C(=O)NCCCNC(=O)C2CCCCC2C(=O)O)C(C)(C)N1 (stereo unspecified),0,–,753 mg/kg
CC1(C)C=C(C(=O)NC(c2ccccc2)c2ccccc2)C(C)(C)N1,5,–,63 mg/kg
Cc1nc2ccccc2c(=O)n1CCCNC(=O)C1=CC(C)(C)NC1(C)C,10,2.6,–
COc1ccc(CNCCNC(=O)C2=CC(C)(C)NC2(C)C)cc1OC,2,–,61 mg/kg
CC(CNC(=O)C1=CC(C)(C)NC1(C)C)NCc1cccs1 (stereo unspecified),4,–,68 mg/kg
Cc1nc2ccccc2c(=O)n1CC(O)CNC(=O)C1=CC(C)(C)NC1(C)C (stereo unspecified),4,–,73 mg/kg
CC1(C)C=C(C(=O)NCCCNC(=O)C(O)c2ccccc2)C(C)(C)N1 (stereo unspecified),1,–,52 mg/kg
CC1(C)C=C(C(=O)NCC(O)CNC(=O)C(C)(C)Oc2ccc(Cl)cc2)C(C)(C)N1 (stereo unspecified),0,–,69 mg/kg
CC1(C)C=C(C(=O)NCCCNC(=O)Cc2ccccc2)C(C)(C)N1,6,–,54 mg/kg
CC1(C)C=C(C(=O)NCCNC(=O)c2ccccc2C(=O)O)C(C)(C)N1,0,–,357 mg/kg
CC1(C)C=C(C(=O)NCc2ccccc2)C(C)(C)N1,3,–,34 mg/kg
CC(=O)Nc1ccc(CNCCCNC(=O)C2=CC(C)(C)NC2(C)C)cc1,2,–,23 mg/kg
CC1(C)C=C(C(=O)NCCNC(=O)c2ccc3c(c2)OCO3)C(C)(C)N1,2,–,95 mg/kg
CC1(C)C=C(C(=O)NCCCNCc2ccsc2)C(C)(C)N1,9,2.2,–
CC1(C)C=C(C(=O)NCCCNCc2cccc(O)c2)C(C)(C)N1,4,–,17 mg/kg
CC1(C)C=C(C(=O)NCCCN2C(=O)C3CC=CCC3C2=O)C(C)(C)N1 (stereo unspecified),2,–,–
CN(Cc1ccccc1)C(=O)C1=CC(C)(C)NC1(C)C,1,–,51 mg/kg
CC1(C)C=C(C(=O)NCCCNC(=O)Cc2cccs2)C(C)(C)N1,8,3.8,–

Compound,No. of positive cases [1],Relative potency [2],LD50 [3]
COc1cc(C(=O)NCCCNC(=O)C2=CC(C)(C)NC2(C)C)cc(OC)c1OC,5,0.97,–
CC1(C)CC(C(=O)NCCCN2C(=O)c3ccccc3C2=O)C(C)(C)N1 (stereo unspecified),10,2.6,–
COc1cc(CNCCNC(=O)C2=CC(C)(C)NC2(C)C)cc(OC)c1OC,2,–,56 mg/kg
CC1(C)C=C(C(=O)NCCNC(=O)COc2ccc(Cl)cc2Cl)C(C)(C)N1,4,–,37 mg/kg
CC1(C)C=C(C(=O)NCCNC(=O)C(C)(C)Oc2ccc(Cl)cc2)C(C)(C)N1,0,–,47 mg/kg
CC1(C)C=C(C(=O)NCCNCc2cccs2)C(C)(C)N1,3,–,123 mg/kg
CC1(C)C=C(C(=O)NCCCNC(=O)c2ccccc2C(=O)O)C(C)(C)N1,0,–,–
CC1(C)C=C(C(=O)NCCCNCc2ccccc2)C(C)(C)N1,9,3.3,–
CC1(C)C=C(C(=O)NCC(O)CN2C(=O)c3ccccc3C2=O)C(C)(C)N1 (stereo unspecified),10,3.9,–
CC1(C)C=C(C(=O)NCCN2C(=O)C3CC=CCC3C2=O)C(C)(C)N1 (stereo unspecified),0,–,182 mg/kg
CC1(C)C=C(C(=O)NCCNC(=O)C2CCCCC2C(=O)O)C(C)(C)N1 (stereo unspecified),0,–,1130 mg/kg
CC1(C)C=C(C(=O)NCCCN2C(=O)C3CCCCC3C2=O)C(C)(C)N1 (stereo unspecified),0,–,106 mg/kg
CC1(C)C=C(C(=O)NCc2ccc(Cl)cc2)C(C)(C)N1,0,–,49 mg/kg
CC1(C)C=C(C(=O)NCCCCNCc2cccs2)C(C)(C)N1,10,2.5,–
CCc1nc2ccccc2c(=O)n1CCNC(=O)C1=CC(C)(C)NC1(C)C,10,1.1,–
CC1(C)CC(C(=O)NCCCNCc2ccc(C(F)(F)F)cc2)C(C)(C)N1 (stereo unspecified),9,4.1,–
CC1(C)C=C(C(=O)NCCNC(=O)C(O)c2ccccc2)C(C)(C)N1 (stereo unspecified),0,–,85 mg/kg
COc1ccc(CNC(=O)C2=CC(C)(C)NC2(C)C)cc1,0,–,66 mg/kg
C=CCc1ccc(OCC(=O)NCCCNC(=O)C2CC(C)(C)NC2(C)C)c(OC)c1 (stereo unspecified),0,–,38 mg/kg
CC1(C)C=C(C(=O)NCCCCNC(=O)c2cccs2)C(C)(C)N1,6,–,37 mg/kg
Cc1nc2ccccc2c(=O)n1CCNC(=O)C1=CC(C)(C)NC1(C)C,4,–,–
CC1(C)C=C(C(=O)NCCCNC(=O)c2cccs2)C(C)(C)N1,4,–,48 mg/kg
CC1(C)C=C(C(=O)NCCCNC(=O)c2ccc3c(c2)OCO3)C(C)(C)N1,4,–,76 mg/kg

Compound,No. of positive cases [1],Relative potency [2],LD50 [3]
Cc1cccc(C)c1NC(=O)C(C)NCCNC(=O)C1=CC(C)(C)NC1(C)C (stereo unspecified),4,–,39 mg/kg
Cc1cc(Cl)ccc1OCC(=O)NCCNC(=O)C1=CC(C)(C)NC1(C)C,2,–,36 mg/kg
CC1(C)C=C(C(=O)NCc2ccncc2)C(C)(C)N1,0,–,132 mg/kg
CC(=O)Nc1ccc(CNCCNC(=O)C2=CC(C)(C)NC2(C)C)cc1,2,–,25 mg/kg
CC1(C)C=C(C(=O)NCCNC(=O)c2ccccn2)C(C)(C)N1,2,–,88 mg/kg
Cc1nc2ccccc2c(=O)n1CCCNC(=O)C1CC(C)(C)NC1(C)C (stereo unspecified),3,–,53 mg/kg
CC1(C)C=C(C(=O)NCCNC(=O)c2cccs2)C(C)(C)N1,3,–,93 mg/kg
CC1(C)C=C(C(=O)NCCCNCc2ccco2)C(C)(C)N1,0,–,34 mg/kg
CC1(C)C=C(C(=O)NC(C(N)=O)c2ccccc2)C(C)(C)N1 (stereo unspecified),2,–,75 mg/kg
CC1(C)C=C(C(=O)NCCCNCc2ccc[nH]2)C(C)(C)N1,4,–,20 mg/kg
CC1(C)CC(C(=O)NCCCNCc2cccs2)C(C)(C)N1 (stereo unspecified),10,2.8,–
CC1(C)C=C(C(=O)NCCCNC(=O)C(C)(C)Oc2ccc(Cl)cc2)C(C)(C)N1,0,–,46 mg/kg
CC1(C)C=C(C(=O)NCCCNCc2ccncc2)C(C)(C)N1,0,–,94 mg/kg
CC1(C)C=C(C(=O)NCCCNC(=O)COc2ccc(Cl)cc2Cl)C(C)(C)N1,5,–,20 mg/kg
CC1(C)CC(C(=O)NCCCNCc2ccsc2)C(C)(C)N1 (stereo unspecified),7,0.9,–
CC1(C)C=C(C(=O)NCCN2C(=O)C3CCCCC3C2=O)C(C)(C)N1 (stereo unspecified),0,–,128 mg/kg
CC1(C)C=C(C(=O)NCCCNCc2ccccn2)C(C)(C)N1,0,–,102 mg/kg
CCc1nc2ccccc2c(=O)n1CCCNC(=O)C1CC(C)(C)NC1(C)C (stereo unspecified),10,4.4,–
CC1(C)C=C(C(=O)NCCNC(=O)C2CC=CCC2C(=O)O)C(C)(C)N1 (stereo unspecified),0,–,1510 mg/kg
CC(NCCNC(=O)C1=CC(C)(C)NC1(C)C)c1cccs1 (stereo unspecified),2,–,53 mg/kg
COc1ccc(CCNC(=O)C2=CC(C)(C)NC2(C)C)cc1OC,0,–,123 mg/kg
